Experimental data published in patent US20250109141A1, “BRD4 PROTEIN DEGRADER COMPOUND, AND PREPARATION METHOD AND USE THEREOF” (Miracure Biotechnology Limited, priority 2023, published 2025).
Like-named read-outs stand apart in the source and are kept apart here.

Tests used:
22RV1 = test: Cell proliferation assay (CellTiterGlo, 72 h), 22RV1; assay type: cell-based; details: read-out: 22Rv1 ATP average IC50
Method: All incubations were performed at 37° C. in a humidified carbon dioxide incubator.
(§1) The cells were seeded in a 96-well plate (white wall/transparent bottom) at 5000 cells/well and cultured overnight.
(§2) On day 2, A stock solution of the compound at a concentration of 10 mM was subjected to an 8-fold serial dilution to obtain 8 concentration points. 2 μL of the compound solution at each concentration point was added to 98 μL of fresh medium, and the mixture was mixed homogeneously. Then, 5 μL of the compound solution diluted in the medium at each concentration point was added to 100 μL of overnight medium containing the cells, and 2 replicates were set for each concentration. The mixture was cultured for 72 h.
(§3) After 72 h of compound treatment, the plate was equilibrated to room temperature, 100 μL of CellTiterGlo (Promega) was added. The mixture was mixed homogeneously for 2 min, left to stand at room temperature for 10 min, and then read for luminescence values on a SpectraMax M5 microplate reader to evaluate cell viability. The positive control was 1% Tween-20 and the negative control was 0.1% DMSO. IC50 was generated by 4-parameter non-linear regression fitting in GraphPad Prism.

LNCaP = test: Cell proliferation assay (CellTiterGlo, 72 h), LNCaP; assay type: cell-based; details: LNCap cells, 72 h compound treatment, read-out: LNCap ATP average IC50
Method: The cell line used was 22RV1 or LNCaP, and the medium was RPMI-1640 containing 10% FBS and antibiotics. All incubations were performed at 37° C. in a humidified carbon dioxide incubator.
On day 1, cells were digested with 0.25% trypsin (containing EDTA) and collected by centrifugation.
as §1, §2, §3

[1] = Homo sapiens, 22Rv1 cells, 72 h compound treatment, CellTiterGlo

Compound	IC50 (LNCaP; Homo sapiens)	IC50 (22RV1; [1])	also measured
Cc1sc2c(c1C)C(c1ccc(C#CCN)cc1)=N[C@@H](CC(=O)NO)c1nnc(C)n1-2 [Compound 9010]	> 500 nM		IC50 (22RV1; Homo sapiens, 22Rv1, 72 h): > 500 nM
Cc1sc2c(c1C)C(c1ccc(-c3nc(CN)cs3)cc1)=N[C@@H](CC(=O)OC(C)(C)C)c1nnc(C)n1-2 [Compound 9059]	< 50 nM	50 to 200 nM	
Cc1sc2c(c1C)C(c1ccc(C#CC(N)=O)cc1)=N[C@@H](CC(=O)OC(C)(C)C)c1nnc(C)n1-2 [Compound 9002]	< 50 nM	< 50 nM	
Cc1sc2c(c1C)C(c1ccc(C#CCON)cc1)=N[C@@H](CC(=O)OC(C)(C)C)c1nnc(C)n1-2 [Compound 9041]	< 50 nM	50 to 200 nM	
CCNC(=O)C[C@@H]1N=C(c2ccc(Cl)cc2)c2cc(OC)ccc2-n2c(C)nnc21 [I-BET-762, reference compound]	> 500 nM	> 500 nM	
Cc1sc2c(c1C)C(c1ccc(C#CCN)cc1)=N[C@@H](CC(=O)N(C)CCO)c1nnc(C)n1-2 [Compound 9075]	< 50 nM		IC50 (22RV1; Homo sapiens, 22Rv1, 72 h): 200 to 500 nM
COC(=O)C#Cc1ccc(C2=N[C@@H](CC(=O)OC(C)(C)C)c3nnc(C)n3-c3sc(C)c(C)c32)cc1 [Compound 9019]	50 to 200 nM	200 to 500 nM	
Cc1sc2c(c1C)C(c1ccc(C#CCN)cc1)=N[C@@H](CC(=O)NN)c1nnc(C)n1-2 [Compound 9018]	> 500 nM		IC50 (22RV1; Homo sapiens, 22Rv1, 72 h): > 500 nM
Cc1sc2c(c1C)C(c1ccc(C#CC(=O)N(C)N)cc1)=N[C@@H](CC(=O)OC(C)(C)C)c1nnc(C)n1-2 [Compound 9023]	> 500 nM	> 500 nM	
CCNC(=O)C[C@@H]1N=C(c2ccc(C#CCN)cc2)c2cc(OC)ccc2-n2c(C)nnc21 [Compound 9051]	> 500 nM		IC50 (22RV1; Homo sapiens, 22Rv1, 72 h): > 500 nM
Cc1sc2c(c1C)C(c1ccc(-c3nc(CN)cs3)cc1)=N[C@@H](CC(=O)OC(C)(C)C)c1nnc(C)n1-2 [Compound 9074]			IC50 (22RV1; 22Rv1 cells, 72 h compound treatment, CellTiterGlo): 50 to 200 nM; IC50 (LNCaP): < 50 nM
Cc1sc2c(c1C)C(c1ccc(/C=C/CN)cc1)=N[C@@H](Cc1nnc(C(C)C)o1)c1nnc(C)n1-2 [Compound 9168]	< 50 nM	< 50 nM	
CONC(=O)C#Cc1ccc(C2=N[C@@H](CC(=O)OC(C)(C)C)c3nnc(C)n3-c3sc(C)c(C)c32)cc1 [Compound 9055]	< 50 nM	< 50 nM	
Cc1sc2c(c1C)C(c1ccc(C#CCN)cc1)=N[C@@H](CC13OCC(C)(CO1)CO3)c1nnc(C)n1-2 [Compound 9113]			IC50 (22RV1): 200 to 500 nM
Cc1sc2c(c1C)C(c1ccc(-c3ccc(N)cc3)cc1)=NC(CC(=O)OC(C)(C)C)c1nnc(C)n1-2 (centres unmarked) [Compound 9086]	200 to 500 nM	200 to 500 nM	
CC(=O)NN(C)CC#Cc1ccc(C2=N[C@@H](CC(=O)OC(C)(C)C)c3nnc(C)n3-c3sc(C)c(C)c32)cc1 [Compound 9047]	> 500 nM	< 50 nM	
Cc1sc2c(c1C)C(c1ccc(-c3ccc(CN)cc3)cc1)=NC(CC(=O)OC(C)(C)C)c1nnc(C)n1-2 (centres unmarked) [Compound 9084]	50 to 200 nM	200 to 500 nM	
CONC/C=C/c1ccc(C2=N[C@@H](CC(=O)OC(C)(C)C)c3onc(C)c3-c3ccccc32)cc1 [Compound 9097]	> 500 nM	> 500 nM	
COc1ccc2c(c1)C(c1ccc(C#CCNC(=N)N)cc1)=N[C@@H](CC(=O)OC(C)(C)C)c1nnc(C)n1-2 [Compound 9159]	> 500 nM		IC50 (22RV1; Homo sapiens, 22Rv1, 72 h): > 500 nM
CONCC#Cc1ccc(C2=N[C@@H](CC(=O)OC(C)(C)C)c3nnc(C)n3-c3sc(C)c(C)c32)cc1 [Compound 9064]	< 50 nM	< 50 nM	
COC(=O)C[C@@H]1N=C(c2ccc(Cl)cc2)c2c(sc(C(=O)NCCOCCNC(=O)C[C@@H]3N=C(c4ccc(C#CCN)cc4)c4c(sc(C)c4C)-n4c(C)nnc43)c2C)-n2c(C)nnc21 [Compound 9157]	200 to 500 nM	200 to 500 nM	
Cc1sc2c(c1C)C(c1ccc(-c3csc(CN)n3)cc1)=NC(CC(=O)OC(C)(C)C)c1nnc(C)n1-2 (centres unmarked) [Compound 9072]	< 50 nM	50 to 200 nM	
COc1ccc2c(c1)C(c1ccc(/C=C/CNO)c(F)c1)=N[C@@H](CC(=O)O)c1nnc(C)n1-2 [Compound 9214]	> 500 nM		IC50 (22RV1; Homo sapiens, 22Rv1, 72 h): > 500 nM
Cc1sc2c(c1C)C(c1ccc(/C=C/CON)cc1)=N[C@@H](CC(=O)OC(C)(C)C)c1nnc(C)n1-2 [Compound 9083]		< 50 nM	
COc1ccc2c(c1)C(c1ccc(/C=C/CON)cc1)=N[C@@H](CC(=O)OC(C)(C)C)c1nnc(C)n1-2 [Compound 9092]			IC50 (22RV1; Homo sapiens, 22Rv1, 72 h): > 500 nM
